# Experimental data from US20190226949A1, “IRIDIUM COMPLEXES FOR CELLULAR IMAGING” (UNIVERSITY OF SOUTH AUSTRALIA, priority 2016, published 2019).
# “And” between values parts separate entries of the source, which are not always exact repeats. Identical values can stand only once.
# Key:
# [1] = Photophysical measurements (absorption, emission, lifetime, quantum yield) in diluted solutions; type: physicochemical; settings: for Emission λem / τaer, excited state lifetime (relative weight in parentheses) / τdeaer, excited state lifetime (relative weight in parentheses): 298K; for Φaer, quantum yield / Φdeaer, quantum yield: versus Ru(bpy)3^2+ in water (φr = 0.028); for τdeaer, excited state lifetime (relative weight in parentheses) / Φdeaer, quantum yield: deaerated; for knr: calculated as [(1 − φ)/τ] from deaerated solutions; for kr: calculated as [φ/τ] from deaerated solutions; for Φ, quantum yield: versus Ru(bpy)3^2+ in water
# Source text: A summary of the photophysical data for the complexes as diluted solutions (10^−5 M) in dichloromethane, water, PBS, lysosomal fluid solution, and ethyl laurate is reported in Table 1. All the listed aqueous media also contain 0.1% DMSO to favour the solubilisation of the complexes. The various solvents have been chosen to identify potential modulations on the photophysical behaviour of the iridium complexes in diverse cellular environments such as cytoplasm, endosome/lysosomes acidic organelles, or lipid-rich compartments like membranes, endoplasmic reticulum, and lipid droplets. In general, the photophysical characteristics were measured in aerated solutions to take into account the presence of oxygen in live cells. On the other hand, dichloromethane solutions were compared as aerated and degassed to confirm oxygen sensitivity and triplet character of the excited states of the complexes.
# Absorption spectra were recorded at room temperature using a Cary 4000 UV/Vis spectrometer. Uncorrected steady state emission and excitation spectra were recorded on an Edinburgh FLSP980-S2S2-stm spectrometer equipped with: i) a temperature-monitored cuvette holder; ii) 450 W Xenon arc lamp; iii) double excitation and emission monochromators; iv) a Peltier cooled Hamamatsu R928P photomultiplier tube (spectral range 200-870 nm). Emission and excitation spectra were corrected for source intensity (lamp and grating) and emission spectral response (detector and grating) by a calibration curve supplied with the instrument. According to the approach described by Demas and Crosby, luminescence quantum yields (Φem) were measured in optically dilute solutions (O.D.<0.1 at excitation wavelength) obtained from absorption spectra on a wavelength scale [nm] and compared to the reference emitter by the following equation: […]
# where A is the absorbance at the excitation wavelength (λ), I is the intensity of the excitation light at the excitation wavelength (λ), n is the refractive index of the solvent, D is the integrated intensity of the luminescence and Φ is the quantum yield. The subscripts r and x refer to the reference and the sample, respectively. The quantum yield determinations were performed at identical excitation wavelength for the sample and the reference, therefore cancelling the I(λr)/I(λx) term in the equation. The quantum yields of complexes were measured against Rubipy in water (Φr=0.028). Emission lifetimes (z) were determined with the time correlated single photon counting technique (TCSPC) with the same Edinburgh FLSP980-S2S2-stm spectrometer using either a pulsed picosecond LED (EPLED/EPL 377 nm, FHWM<800 ps) or a microsecond flashlamp. The goodness of fit was assessed by minimising the reduced χ^2 function and by visual inspection of the weighted residuals. The solvents used for the preparation of the solutions for the photophysical investigations were of LR grade and the water was deionised. Degassing of the dichlorometane solutions was performed using the freeze-pump-thaw method. Experimental uncertainties are estimated to be ±8% for lifetime determinations, ±20% for quantum yields, ±2 nm and ±5 nm for absorption and emission peaks, respectively.
# [2] = Lipophilicity by shake-flask method (7.4-buffered PBS / n-octanol); type: physicochemical; settings: 7.4-buffered PBS solution and n-octanol
# Procedure: The lipophilicity of the iridium complexes was measured by the shake-flask method using 7.4-buffered PBS and n-octanol as solvents (Table 2). The values range between 1.49 and 2.68 are typical for cyclometalated iridium complexes that have not been bioconjugated. […] In general, neutral complexes have log D7.4 values above 2.00 and there is an increased in lipophilicity of extending the tetrazolato ligand with the addition of a phenyl spacer in [Ir(ppy)2(TzPyPhCN)], or by extending the conjugation on passing from pyridine to quinoline or isoquinoline for [Ir(ppy)2(TzQn)] and [Ir(ppy)2(TziQn)]. Methylation in all cases reduces lipophilicity to log D7.4 values […], with the same trend within the family of methylated complexes as previously observed for the neutral ones.
# [3] = system: H9c2 rat cardiomyoblast cells; assay: Staining and co-staining of live H9c2 cells, confocal and two-photon microscopy; type: cell-based
# Procedure: Live H9c2 rat cardiomyoblasts were incubated with the iridium complexes for 30 minutes. Complexes were made to a final concentration of 20 μM in the cell culture medium with DMSO concentration <0.2%. Under these conditions, the luminescence from the iridium complexes within the cells was detected via confocal microscopy under single-photon excitation (403 nm) or two-photon excitation (810-840 nm).
# To determine the localisation of the iridium complexes, co-staining experiments were carried out with the use of ER-Tracker™ Red (endoplasmic reticulum), LysoTracker® Red DND-99 (acidic compartments), MitoTracker® Red (mitochondria), BODIPY® 500/510 C1, C12(fatty acid) or β-BODIPY® FL HPC (phospholipids). […] This difference was also in agreement with the trend of the quantum yield data illustrated before and detection of internalised complex by ICP-MS.
# H9c2 rat cardiomyoblast cell line was a kind gift from Professor Janna Morrison (University of South Australia). The H9c2 cells were maintained in high-glucose (4500 mg/L) DMEM medium (Sigma-Aldrich, USA) containing 10% fetal bovine serum (FBS; In Vitro Technologies, USA) and 2 mM L-glutamine (Sigma-Aldrich, USA) at 37° C. and 5% CO2. The H9c2 cells were cultured in […] flasks, and cells (1×10^6 cells/mL) that had been passaged, from two up to five times were used for experiments. For live cell imaging and MTS assay, the H9c2 cells (1×10^5 cells/mL) were cultured overnight in either ibidi μ-Slide 8 wells in a final volume of 250 μL or 96-well microtiter plate in a final volume of 200 μL in absence of Ir-based molecular probes.
# The H9c2 cells were incubated with 20 μM of Ir-based molecular probes for 30 minutes in FBS-free media (300 μL) at 37° C. and 5% CO2. These cells were washed twice with phosphate buffered saline (PBS) and once with FBS-free media, and then co-stained with either ER-Tracker™ Red (BODIPY® TR Glibenclamide), LysoTracker® Red DND-99, MitoTracker® Red CMXRos (1H,5H,11H,15H-Xantheno[2,3,4-ij:5,6,7-i′j′]diquinolizin-18-ium, 9-[4-(chloromethyl)phenyl]-2,3,6,7,12,13,16,17-octahydro-, chloride), β-BODIPY® FL C5-HPC (2-(4,4-Difluoro-5,7-Dimethyl-4-Bora-3a,4a-Diaza-s-Indacene-3-Pentanoyl)-1-Hexadecanoyl-sn-Glycero-3-Phosphocholine) or BODIPY® 500/510 C1, C12 (4,4-Difluoro-5-Methyl-4-Bora-3a,4a-Diaza-s-Indacene-3-Dodecanoic Acid), which were obtained from Life Technologies Australia Pty Ltd, Australia. Cell biology analysis was carried out with a minimum of two experimental groups. Imaging analysis was performed using a Nikon A1+ confocal microscope equipped with 403 nm, 488 nm, 561 nm and 640 nm solid-state lasers (Nikon, Japan) and OKOLab Microscope Incubator (Okolab USA Inc., USA). The final preparation of the images was conducted with Adobe Photoshop CC (Adobe Systems Inc., USA).
# The H9c2 cells were incubated with 20 μM of Ir-based molecular probes for 30 minutes in FBS-free media (300 μL) at 37° C. and 5% CO2. These cells then were washed with phosphate buffered saline (PBS) and imaged using Zeiss LSM710 META NLO inverted microscope supplemented with a two-photon Mai-Tai®, tunable Ti:Sapphire femtosecond pulse laser (710-920 nm, Spectra-Physics). Fluorescence of Ir-based molecular probes was detected using the following settings: two-photon excitation wavelength 830 nm, beam splitter MBS 690+, emission interval 520-650 nm. The H9c2 cells were exposed to two-photon illumination between 810-840 nm. A continuum of lambda stack images was captured across the emission spectrum 416-728 nm. The images were acquired using a Plan-APOCHROMAT 63X/NA1.4 oil immersion objective. The final preparation of the images was conducted with Adobe Photoshop CC (Adobe Systems Inc., USA).
SMILES,"Absorption λabs [nm] (10^4ε [M^−1cm^−1]) ([1]; DCM, 10^−5 M)","Emission λem ([1]; DCM, 10^−5 M)","τaer, excited state lifetime (relative weight in parentheses) ([1]; DCM, aerated)","Φaer, quantum yield ([1]; DCM, aerated)","τdeaer, excited state lifetime (relative weight in parentheses) ([1]; DCM)","Φdeaer, quantum yield ([1]; DCM)",knr ([1]; DCM),kr ([1]; DCM),"Absorption λabs [nm] (10^4ε [M^−1cm^−1]) ([1]; H2O with 0.1% DMSO, 10^−5 M)","Emission λem ([1]; H2O with 0.1% DMSO, aerated)","Φ, quantum yield ([1]; H2O with 0.1% DMSO, aerated)","logD ([2]; pH 7.4, read-out: logD7.4, distribution coefficient)","cellular localisation (co-staining) ([3]; live H9c2, 20 μM, 30 minutes)","emission profile from cells ([3]; live H9c2, one-photon or two-photon excitation)","logD7.4, distribution coefficient [2]","emission in the various solvents ([1]; dichloromethane, water, PBS, lysosomal fluid, ethyl laurate)","emission detected from stained cells ([3]; live H9c2, 20 μM, 30 minutes)"
C[n+]1nc2[n](n1)[Ir]13([c]4cc(F)cc(F)c4-c4cccc[n+]41)([c]1cc(F)cc(F)c1-c1cccc[n+]13)[n+]1cc(C#N)ccc1-2 [[Ir(F2ppy)2(MeTzPyCN)]^+],250 (3.56) nm (10^4ε [M^−1cm^−1]) and 316 (1.28) nm (10^4ε [M^−1cm^−1]) and 356 (0.58) nm (10^4ε [M^−1cm^−1]),600 nm,287 ns,0.057,551 ns,0.188,1.601 10^6s^−1,2.142 10^5s^−1,260 (4.12) nm (10^4ε [M^−1cm^−1]) and 309 (1.55) nm (10^4ε [M^−1cm^−1]) and 353 (0.66) nm (10^4ε [M^−1cm^−1]),636 nm,0.005,1.86 ± 0.02,staining pattern consistent with mitochondrial localisation,blue-shifted and almost superimposable bands between these cationic complexes and their neutral analogues,,,
N#Cc1ccc2[n+](c1)[Ir]13([c]4cc(F)cc(F)c4-c4cccc[n+]41)([c]1cc(F)cc(F)c1-c1cccc[n+]13)[n]1nnnc1-2 [[Ir(F2ppy)2(TzPyCN)]],,542 nm,140 ns,0.042,697 ns,0.406,0.852 10^6s^−1,5.825 10^5s^−1,256 (4.83) nm (10^4ε [M^−1cm^−1]) and 302 (3.36) nm (10^4ε [M^−1cm^−1]) and 366 (1.16) nm (10^4ε [M^−1cm^−1]),552 nm,0.057,,,,2.01 ± 0.05,,
C[n+]1nc2[n](n1)[Ir]13([c]4ccccc4-c4cccc[n+]41)([c]1ccccc1-c1cccc[n+]13)[n+]1cc(C#N)ccc1-2 [[Ir(ppy)2(MeTzPyCN)]^+],,680 nm,,0.012,,0.014,,,,,,,,,,appreciable emission only in dichloromethane solution,no emission was detected from stained cells
N#Cc1ccc(-c2ccc3[n+](c2)[Ir]24([c]5ccccc5-c5cccc[n+]52)([c]2ccccc2-c2cccc[n+]24)[n]2nnnc2-3)cc1 [[Ir(ppy)2(TzPyPhCN)]],268 (3.95) nm (10^4ε [M^−1cm^−1]) and 290 (3.64) nm (10^4ε [M^−1cm^−1]) and 345 (0.58) nm (10^4ε [M^−1cm^−1]) and 423 (0.27) nm (10^4ε [M^−1cm^−1]),560 nm,114 ns,0.023,880 ns,0.149,0.967 10^6s^−1,1.693 10^5s^−1,286 (1.87) nm (10^4ε [M^−1cm^−1]) and 350 (0.86) nm (10^4ε [M^−1cm^−1]) and 421 (0.34) nm (10^4ε [M^−1cm^−1]),580 nm,0.055,,,,2.68 ± 0.08,,
c1cc[c]2c(c1)-c1cccc[n+]1[Ir]213([c]2ccccc2-c2cccc[n+]21)[n]1nnnc1-c1ccc2ccccc2[n+]13 [[Ir(ppy)2(TzQn)]],263 (8.44) nm (10^4ε [M^−1cm^−1]) and 345 (1.97) nm (10^4ε [M^−1cm^−1]) and 428 (0.42) nm (10^4ε [M^−1cm^−1]),580 nm,153 ns,0.021,831 ns,0.065,1.125 10^6s^−1,0.782 10^5s^−1,266 (4.41) nm (10^4ε [M^−1cm^−1]) and 350 (2.35) nm (10^4ε [M^−1cm^−1]) and 425 (0.97) nm (10^4ε [M^−1cm^−1]),600 nm,0.039,,,,2.23 ± 0.04,,
c1cc[c]2c(c1)-c1cccc[n+]1[Ir]213([c]2ccccc2-c2cccc[n+]21)[n]1nnnc1-c1c2ccccc2cc[n+]13 [[Ir(ppy)2(TziQn)]],260 (9.77) nm (10^4ε [M^−1cm^−1]) and 340 (3.13) nm (10^4ε [M^−1cm^−1]) and 424 (0.75) nm (10^4ε [M^−1cm^−1]),"535, nm and 575 nm and 620 nm",497 ns,0.036,6713 ns,0.144,0.128 10^6s^−1,0.214 10^5s^−1,268 (3.42) nm (10^4ε [M^−1cm^−1]) and 350 (2.00) nm (10^4ε [M^−1cm^−1]) and 435 (0.80) nm (10^4ε [M^−1cm^−1]),590 nm,0.018,,,,2.57 ± 0.05,,
